{"source": "patent US12433903B2", "about": "(priority 2021, dated 2025)", "assay_type_in_all_cases": "in vitro ADME", "key": {"[1]": {"system": "cryopreserved hepatocytes", "assay": "Hepatocyte stability and metabolite profiling, monkey", "conditions": "monkey hepatocyte samples, 10 and 20 minute", "experimental": "(§1) The objective of this study was to investigate the stability of the test compound, CBG, in human, rat, dog, mouse, monkey and minipig cryopreserved hepatocytes. Follow-on metabolite profiling was performed.\n(§2) CBG was incubated up to 2 hr with cryopreserved hepatocytes. Cryopreserved hepatocytes in suspension were added to test compound in supplemented media following pre-incubation to initiate the reaction and the reactions were stopped by organic solvent at the appropriate time points. The termination plates were centrifuged and sample supernatants were analysed using Cyprotex generic LC MS/MS conditions to generate intrinsic clearance values for CBG. Two control compounds for each species were included in the assay and if the values for these compounds were not within the specified limits the results were rejected and the experiment repeated.\n(§3) Following the hepatocyte stability assay the samples were 59 tilized for metabolite profiling using suitable high-resolution LC-MS/MS conditions. The 40 and 60 minute human samples, 20 and 120 minute rat samples, 10 and 20 minute dog and monkey samples, 20 and 60 minute mouse samples, and 40 and 120 minute minipig samples were compared against the 0 minute control sample to establish which and how many metabolites were formed. […]\n(§4) The areas and percentages reported for the parent and metabolites were calculated using the XIC data. […]"}, "[2]": {"system": "cryopreserved hepatocytes", "assay": "Hepatocyte stability and metabolite profiling, human", "conditions": "human hepatocyte samples, 40 and 60 minute", "experimental": "as §1, §2, §3, §4"}, "[3]": {"system": "cryopreserved hepatocytes", "assay": "Hepatocyte stability and metabolite profiling, minipig", "conditions": "minipig hepatocyte samples, 40 and 120 minute", "experimental": "as §1, §2, §3, §4"}, "[4]": {"molecular_target": "T1, rUGT2B7 (Homo sapiens, UniProt P16662)", "T1 sequence (P16662 24-529)": "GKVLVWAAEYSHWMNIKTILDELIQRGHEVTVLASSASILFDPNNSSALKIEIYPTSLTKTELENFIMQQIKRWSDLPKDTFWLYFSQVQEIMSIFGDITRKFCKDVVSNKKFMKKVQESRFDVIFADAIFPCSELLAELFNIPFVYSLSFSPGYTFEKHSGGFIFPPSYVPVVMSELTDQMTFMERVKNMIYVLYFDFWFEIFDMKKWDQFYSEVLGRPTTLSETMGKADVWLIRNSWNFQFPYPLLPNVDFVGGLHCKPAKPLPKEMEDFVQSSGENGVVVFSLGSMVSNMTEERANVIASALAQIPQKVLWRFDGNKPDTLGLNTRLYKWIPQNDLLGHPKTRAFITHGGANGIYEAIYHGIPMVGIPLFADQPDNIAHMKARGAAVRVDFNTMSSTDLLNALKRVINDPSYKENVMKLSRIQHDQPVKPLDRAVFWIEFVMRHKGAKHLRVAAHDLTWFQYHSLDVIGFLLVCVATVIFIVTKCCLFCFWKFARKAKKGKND", "assay": "Inhibition of CBG glucuronidation by Compound 1, rUGT2B7", "experimental": "The purpose of this experiment was to determine if Compound 1 can inhibit the glucuronidation of CBG, as both are substrates for the two major isoforms responsible for CBG glucuronidation.\nThe ability of Compound 1 to inhibit the metabolism of CBG by UGT1A9 and UGT2B7 enzymes was investigated to ascertain the IC50 values for direct inhibition. The incubation conditions (substrate concentration, incubation time and protein concentration) were determined in Part 2 of the protocol such that CBG metabolism remains near initial rate conditions (e.g., 20-30% substrate loss).\nPreliminary experiments were conducted in Part I of the protocol, first to establish the HPLC/MS/MS bioanalytical methods for CBG and CBG glucuronide. […] The second set of preliminary experiments (Part 2), as mentioned, were conducted to optimize the incubation conditions as described above. Incubations (at 37° C.) contained Tris-HCl buffer (100 mM, pH 7.7), MgCl2 (10 mM), EDTA (1 mM, pH 7.4) and UDP-glucuronic acid (UDPGA, 10 mM). CBG was added to each incubation in DMSO such that the final percent of DMSO was 1% v/v, or less. Reactions were terminated by the addition of an equal volume of stop reagent, acetonitrile containing an internal standard. The samples were centrifuged (e.g., 920 RCF for 10 minutes at 10° C.), and the supernatant fractions were analyzed by LC-MS/MS to determine the amount of CBG remaining and formation of one metabolite (CBG glucuronide).\nTo examine its ability to act as a direct inhibitor of the above listed enzymes, Compound 1 was be added to recombinant human UGT enzyme together with CBG. Reactions were initiated with UDPGA and were carried out in duplicate. For all assays, reactions were terminated by the addition of acetonitrile with or without 2% v/v formic acid, including the internal standard.\nAuthentic metabolite reference standards were used for quantitation of the probe substrate metabolites and as internal standards. Based on the information obtained in the Part 2 experiments, the following table summarizes the experiments performed, assessing the inhibitory effects of Compound 1 was conducted as follows:\nThe amounts of CBG present at the end of the incubation periods was determined. For inhibition to have occurred, the amounts of CBG present at the end of the incubation period needed to increase, and the amounts of glucuronide formed needed to decrease."}, "[5]": {"conditions": "10 μM CBG + 0.01 μM Compound 1, 5 min"}, "[6]": {"conditions": "10 μM CBG + 0.03 μM Compound 1, 5 min"}, "[7]": {"conditions": "10 μM CBG + 0.1 μM Compound 1, 5 min"}, "[8]": {"conditions": "10 μM CBG + 0.3 μM Compound 1, 5 min"}, "[9]": {"conditions": "10 μM CBG + 1 μM Compound 1, 5 min"}, "[10]": {"conditions": "10 μM CBG + 3 μM Compound 1, 5 min"}, "[11]": {"conditions": "10 μM CBG + 10 μM Compound 1, 5 min"}}}
{"smiles": "CCCCCc1cc(O)c(C/C=C(\\C)CCC=C(C)C)c(O)c1", "note": "[CBG, cannabigerol]", "values": [{"measurement": "metabolites observed (number)", "setting": "[1]", "result": "four"}, {"measurement": "metabolites observed (number)", "setting": "[2]", "result": "Seven"}, {"measurement": "metabolites observed (number)", "setting": "[3]", "result": "four"}]}
{"smiles": "CCCCCc1cc(O)c(C/C=C(\\C)CCC=C(C)C)c(OC)c1", "note": "[Compound 1, (E)-2-(3,7-dimethylocta-2,6-dien-1-yl)-3-methoxy-5-pentylphenol]", "values": [{"measurement": "CBG detected (CBG loss)", "setting": "[4]; [5]", "result": 1370, "unit": "pmol"}, {"measurement": "CBG detected, Percent of control", "setting": "[4]; [5]", "result": 103}, {"measurement": "CBG glucuronide formed", "setting": "[4]; [5]", "result": 260000, "unit": "area ratio"}, {"measurement": "CBG glucuronide formed, Percent of control", "setting": "[4]; [5]", "result": 104}, {"measurement": "CBG detected (CBG loss)", "setting": "[4]; [6]", "result": 1460, "unit": "pmol"}, {"measurement": "CBG detected, Percent of control", "setting": "[4]; [6]", "result": 109}, {"measurement": "CBG glucuronide formed, Percent of control", "setting": "[4]; [6]", "result": 101}, {"measurement": "CBG detected (CBG loss)", "setting": "[4]; [7]", "result": 1410, "unit": "pmol"}, {"measurement": "CBG detected, Percent of control", "setting": "[4]; [7]", "result": 106}, {"measurement": "CBG glucuronide formed, Percent of control", "setting": "[4]; [7]", "result": 103}, {"measurement": "CBG detected (CBG loss)", "setting": "[4]; [8]", "result": 1450, "unit": "pmol"}, {"measurement": "CBG detected, Percent of control", "setting": "[4]; [8]", "result": 109}, {"measurement": "CBG glucuronide formed, Percent of control", "setting": "[4]; [8]", "result": 105}, {"measurement": "CBG detected (CBG loss)", "setting": "[4]; [9]", "result": 1460, "unit": "pmol"}, {"measurement": "CBG detected, Percent of control", "setting": "[4]; [9]", "result": 109}, {"measurement": "CBG glucuronide formed, Percent of control", "setting": "[4]; [9]", "result": 102}, {"measurement": "CBG detected (CBG loss)", "setting": "[4]; [10]", "result": 1440, "unit": "pmol"}, {"measurement": "CBG detected, Percent of control", "setting": "[4]; [10]", "result": 108}, {"measurement": "CBG glucuronide formed, Percent of control", "setting": "[4]; [10]", "result": 101}, {"measurement": "CBG detected (CBG loss)", "setting": "[4]; [11]", "result": 1470, "unit": "pmol"}, {"measurement": "CBG detected, Percent of control", "setting": "[4]; [11]", "result": 111}, {"measurement": "CBG glucuronide formed, Percent of control", "setting": "[4]; [11]", "result": 96.0}, {"measurement": "metabolism of CBG in the presence of Compound 1 (in words)", "setting": "[4]; 0.01-10 μM Compound 1, CBG disappearance or glucuronide formation", "result": "essentially unchanged"}]}
